Assay results published in patent publication US10370359B2, “Process for the preparation of crystalline dexlansoprazole” (DIPHARMA FRANCIS S.r.l., priority 2017, dated 2019).
Like-named read-outs stand apart in the source and are kept apart here.

Columns and labels:
[1] = format: physicochemical; details: for purity of the samples, 24 h: after 24 hours at 70° C. in an oven; for purity of the samples, 24 h / purity of the samples, 48 h / purity of the samples, 72 h / purity of the samples, 0 h: HPLC at 285 nm; for purity of the samples, 48 h: after 48 hours at 70° C. in an oven; for purity of the samples, 72 h: after 72 hours at 70° C. in an oven; for purity of the samples, 0 h: time 0, before heating at 70° C.
Method: The samples of crystalline anhydrous dexlansoprazole prepared according to the method of the present invention (new method) and those made according to the method of U.S. Pat. No. 8,314,241 (present Example 4) are heated in an oven at 70° C.
After 24, 48 and 72 hours, samples are taken and analyzed by HPLC at a wavelength of 285 nm.

[2] = Thermal stability of dexlansoprazole in solution (dispersion), HPLC; format: physicochemical; details: dispersion 14 hours at 45° C., distillation at 50° C. at reduced pressure, further 14 hours at 45° C.; not present at time 0
Method: In order to establish the thermal stability of dexlansoprazole the dispersion of dexlansoprazole was heated for 14 hours at 45° C., then a distillation at 50° C. at reduced pressure was performed and finally the dispersion was kept for further 14 hours at 45° C.
The color of the resulting dispersion turned into a slight yellow.

[3] = listed as crystalline anhydrous dexlansoprazole prepared with the procedure of the present

decrease of the concentration of crystalline anhydrous dexlansoprazole ([1]; 70° C. for 72 hours, Area % HPLC at 285 nm) | purity of the samples, 24 h [1] | purity of the samples, 48 h [1] | purity of the samples, 72 h [1] | purity of the samples, 72 h [1, 3] | purity of the samples, 0 h [1] | purity of the samples, 0 h [1, 3] | increase of the contents of all the impurities ([1]; after 24 hours at 70° C.) | increase of the contents of all the impurities ([1]; after 72 hours at 70° C.) | content of impurity of formula (I) formed [2] | SMILES
less than 0.1% | 99.95% | 99.93% | 99.93% | 99.93% | 99.96% | 99.96% |  |  |  | Cc1c(OCC(F)(F)F)ccnc1C[S@@+]([O-])c1nc2ccccc2[nH]1 [Method of the present invention]
 | 99.28% | 99.09% | 98.91% |  | 99.51% |  | more than 0.2% | 0.60% |  | Cc1c(OCC(F)(F)F)ccnc1C[S@@+]([O-])c1nc2ccccc2[nH]1 [U.S. Pat. No. 8,314,241]
 |  |  |  |  |  |  |  |  | 0.03% | Cc1c(OCC(F)(F)F)ccnc1C[S@@+]([O-])c1nc2ccccc2[nH]1 [dexlansoprazole]
